Article PMC7002685, “Inhibition of vascular calcification by inositol phosphates derivatized with ethylene glycol oligomers” (Nature Communications, 2020)

What was measured:
[1] = target: T1, Chemokine CCR1 (Homo sapiens, UniProt P32246); experiment: Off-target 217510; assay type: binding
T1 construct: purchased Eurofins Panlabs Discovery Services Taiwan, Ltd
Protocol: (§1) The potential off-target activity of 10 µM (OEG2)2-IP4 was assessed against a panel of 87 enzymes, receptors, or ion channels that are used in standard safety pharmacology screens.
(§2) 3.2. Off-target screening assay
(§3) The experiments were conducted by a contract research organization (Eurofins Panlabs Discovery
(§4) Services Taiwan, Ltd.) and details on the respective assays can be retrieved via the catalog number
(§5) provided in Supplementary Table 11 from the company’s webpage
(§6) (https://www.eurofinsdiscoveryservices.com/). […]

[2] = target: T2, Cholecystokinin CCK1 (CCKA) (Homo sapiens, UniProt P32238); experiment: Off-target 218030; assay type: binding
T2 construct: purchased Eurofins Panlabs Discovery Services Taiwan, Ltd
T2 sequence (P32238 whole entry): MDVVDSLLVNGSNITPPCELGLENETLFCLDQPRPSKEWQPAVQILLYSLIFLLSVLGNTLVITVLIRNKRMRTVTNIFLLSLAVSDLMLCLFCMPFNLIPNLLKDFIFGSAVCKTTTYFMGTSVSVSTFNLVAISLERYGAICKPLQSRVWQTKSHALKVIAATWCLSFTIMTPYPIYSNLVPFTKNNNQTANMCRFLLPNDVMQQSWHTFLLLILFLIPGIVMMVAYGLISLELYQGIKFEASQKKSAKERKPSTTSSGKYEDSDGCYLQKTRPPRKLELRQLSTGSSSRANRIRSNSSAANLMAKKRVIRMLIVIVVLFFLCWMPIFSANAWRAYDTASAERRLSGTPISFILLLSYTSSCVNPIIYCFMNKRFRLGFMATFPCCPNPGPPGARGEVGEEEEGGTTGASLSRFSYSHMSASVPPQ
Protocol: as §1, §2
(§7) The experiments were conducted by a contract research organization (Eurofins Panlabs Discovery Services Taiwan, Ltd.) and details on the respective assays can be retrieved via the catalog number provided in Supplementary Table 11 from the company’s webpage
as §6
(§8) At sacrifice the left tibia of animals of the rat model with dietary adenine/high-phosphate-induced uremia and VC was collected, fixed with 70% v/v EtOH and embedded in methyl methacrylate. The trabecular bone compartment is known to be the most metabolic active i.e. actively re-structured bone compartment in CKD. Therefore, histomorphometric and micro-computed tomography (µCT) analysis of bone was performed on the trabecular compartment. Tibial sections were Goldner-stained for histomorphometric analysis of the proximal metaphysis using the AxioVision Release 4.5 software, as […]
(§9) described previously5. […]

[3] = tested on: panel of 87 enzymes, receptors, or ion channels; experiment: Off-target panel of 87 enzymes, receptors, or ion channels; assay type: biochemical; conditions: 10 µM
Protocol: as §1, §2, §7, §6, §8, §9

[4] = target: Glutamate, NMDA, Glycine (Rattus norvegicus, UniProt P35439); experiment: Off-target 232910; assay type: binding
Glutamate, NMDA, Glycine, sequence (P35439 394-800 limits assumed): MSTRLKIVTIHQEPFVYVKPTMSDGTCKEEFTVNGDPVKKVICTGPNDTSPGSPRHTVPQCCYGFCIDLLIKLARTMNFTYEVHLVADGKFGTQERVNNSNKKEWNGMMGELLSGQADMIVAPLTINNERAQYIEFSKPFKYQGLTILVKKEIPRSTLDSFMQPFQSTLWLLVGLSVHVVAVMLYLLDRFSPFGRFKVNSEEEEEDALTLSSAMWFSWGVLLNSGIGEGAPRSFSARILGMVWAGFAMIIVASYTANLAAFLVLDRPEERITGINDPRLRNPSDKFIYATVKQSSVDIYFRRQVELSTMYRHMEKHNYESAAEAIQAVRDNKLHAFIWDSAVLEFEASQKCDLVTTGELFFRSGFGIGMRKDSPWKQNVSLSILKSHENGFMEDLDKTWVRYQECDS
Protocol: as §1, §2, §3, §4, §5, §6

[5] = VSMC viability (MTS), compounds only; assay type: cell-based, human; conditions: human, compound only, read-out: VSMC viability (MTS), % of medium control
[6] = tested on: serum CPP; experiment: CPP calcium, CPP2 hydrodynamic diameter and T50 in rat sera at sacrifice; assay type: in vivo, male Wistar rats; conditions: 5, 15, 50 mg/kg/day
Protocol: The inhibitory effect of (OEG2)2-IP4 on heart calcifications was significant starting at 15 mg/kg/day (Fig. 6b). The compound’s activity was also evident following von Kossa staining (Fig. 6c) on the thoracic part of the aorta, and quantification of the von Kossa-positive area (Fig. 6d). […] In the femoral artery, reduction in bulk calcium was insignificant for all tested groups, likely due to the low level of calcification detected in the vehicle control (Fig. 6f, Supplementary Table 9).
DLS analysis of CPPs induced in serum samples collected from in vivo adenine-induced VC studies and stored at −20 °C was performed as described for human serum samples and CPP hydrodynamic diameter development was monitored by hourly DLS measurements.
The first group was treated with vehicle (double distilled (d.d.) water), the second, third, and fourth groups were treated with daily doses equivalent of 5, 15, and 50 mg/kg of (OEG2)2-IP4, respectively, in 2 mL d.d. water starting 1 week after the administration of the adenine diet. […] Serum samples were analyzed for creatinine according to the Jaffe method, calcium (using flame atomic absorption spectrometry[74]), and phosphate (DiaSys Diagnostic Systems, Holzheim, Germany) concentrations. […] In addition, serum aliquots were centrifuged (10,000 × g, 4 °C, 30 min) and T50’s were determined as described above. […]

[7] = tested on: Phosphodiesterase PDE4; experiment: Off-target 154000; assay type: biochemical, Human; conditions: 10 µM
Protocol: as §1, §2, §7, §6, §8, §9

[8] = target: T3, Peptidase, Angiotensin Converting Enzyme (Oryctolagus cuniculus, UniProt P12822); experiment: Off-target 107300; assay type: biochemical, Rabbit
T3 construct: purchased Eurofins Panlabs Discovery Services Taiwan, Ltd
T3 sequence (P12822 34-1310): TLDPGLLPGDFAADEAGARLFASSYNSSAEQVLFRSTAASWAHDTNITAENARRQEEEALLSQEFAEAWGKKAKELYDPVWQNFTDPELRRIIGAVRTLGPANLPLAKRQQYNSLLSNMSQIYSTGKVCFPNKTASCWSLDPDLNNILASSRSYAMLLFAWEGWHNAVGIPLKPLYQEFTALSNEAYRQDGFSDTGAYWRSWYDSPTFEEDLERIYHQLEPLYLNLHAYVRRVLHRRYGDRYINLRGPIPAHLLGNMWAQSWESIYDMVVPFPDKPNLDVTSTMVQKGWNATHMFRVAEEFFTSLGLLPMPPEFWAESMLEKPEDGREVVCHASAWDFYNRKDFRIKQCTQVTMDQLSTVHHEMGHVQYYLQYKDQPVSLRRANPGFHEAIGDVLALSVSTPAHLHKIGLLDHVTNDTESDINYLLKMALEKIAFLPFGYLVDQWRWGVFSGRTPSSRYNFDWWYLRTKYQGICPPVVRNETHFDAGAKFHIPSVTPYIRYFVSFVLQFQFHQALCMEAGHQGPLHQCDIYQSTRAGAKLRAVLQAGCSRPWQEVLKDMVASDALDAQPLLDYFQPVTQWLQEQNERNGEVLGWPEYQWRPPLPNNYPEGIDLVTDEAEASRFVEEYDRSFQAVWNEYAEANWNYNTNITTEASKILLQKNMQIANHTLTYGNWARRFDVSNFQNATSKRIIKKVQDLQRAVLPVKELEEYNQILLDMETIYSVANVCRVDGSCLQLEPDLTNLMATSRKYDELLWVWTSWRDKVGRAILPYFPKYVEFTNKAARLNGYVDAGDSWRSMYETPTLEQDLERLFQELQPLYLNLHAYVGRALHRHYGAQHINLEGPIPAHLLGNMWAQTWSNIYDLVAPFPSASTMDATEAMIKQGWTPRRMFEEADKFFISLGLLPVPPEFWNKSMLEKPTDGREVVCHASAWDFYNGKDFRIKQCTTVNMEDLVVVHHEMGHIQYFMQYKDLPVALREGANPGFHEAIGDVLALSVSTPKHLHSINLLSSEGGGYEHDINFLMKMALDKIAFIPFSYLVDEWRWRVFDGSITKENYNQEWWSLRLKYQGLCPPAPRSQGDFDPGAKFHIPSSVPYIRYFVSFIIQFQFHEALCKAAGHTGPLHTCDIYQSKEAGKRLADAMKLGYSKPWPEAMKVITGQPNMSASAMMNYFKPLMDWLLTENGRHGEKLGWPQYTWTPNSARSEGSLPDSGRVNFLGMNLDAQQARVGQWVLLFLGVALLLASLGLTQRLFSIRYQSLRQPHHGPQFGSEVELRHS
Protocol: as §1, §2, §3, §4, §5, §6

[9] = tested on: Sodium Channel, Site 2; experiment: Off-target 279510; assay type: binding, Rat; conditions: 10 µM
Protocol: as §1, §2, §3, §4, §5, §6

[10] = target: T4, (Rattus norvegicus, UniProt P15823); experiment: Off-target 203200; assay type: binding
T4 construct: purchased Eurofins Panlabs Discovery Services Taiwan, Ltd
T4 sequence (P15823 whole entry): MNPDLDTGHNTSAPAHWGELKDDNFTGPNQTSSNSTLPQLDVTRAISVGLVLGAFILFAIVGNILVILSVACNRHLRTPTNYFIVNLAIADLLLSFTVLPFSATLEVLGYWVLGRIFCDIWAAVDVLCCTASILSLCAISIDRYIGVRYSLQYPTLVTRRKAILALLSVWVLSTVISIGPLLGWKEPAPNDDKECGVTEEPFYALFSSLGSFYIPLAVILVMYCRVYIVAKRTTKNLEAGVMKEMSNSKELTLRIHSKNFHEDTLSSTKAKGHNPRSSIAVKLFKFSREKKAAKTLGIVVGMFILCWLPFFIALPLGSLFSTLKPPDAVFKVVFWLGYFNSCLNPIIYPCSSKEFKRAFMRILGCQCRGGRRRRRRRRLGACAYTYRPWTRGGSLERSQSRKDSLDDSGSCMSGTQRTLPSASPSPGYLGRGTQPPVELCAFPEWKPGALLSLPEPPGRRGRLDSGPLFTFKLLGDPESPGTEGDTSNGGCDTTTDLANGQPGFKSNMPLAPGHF
Protocol: as §1, §2, §7, §6, §8, §9

[11] = target: T5, Phosphodiesterase PDE3 (Homo sapiens, UniProt Q14432); experiment: Off-target 152000; assay type: biochemical
T5 construct: purchased Eurofins Panlabs Discovery Services Taiwan, Ltd
T5 sequence (Q14432 whole entry): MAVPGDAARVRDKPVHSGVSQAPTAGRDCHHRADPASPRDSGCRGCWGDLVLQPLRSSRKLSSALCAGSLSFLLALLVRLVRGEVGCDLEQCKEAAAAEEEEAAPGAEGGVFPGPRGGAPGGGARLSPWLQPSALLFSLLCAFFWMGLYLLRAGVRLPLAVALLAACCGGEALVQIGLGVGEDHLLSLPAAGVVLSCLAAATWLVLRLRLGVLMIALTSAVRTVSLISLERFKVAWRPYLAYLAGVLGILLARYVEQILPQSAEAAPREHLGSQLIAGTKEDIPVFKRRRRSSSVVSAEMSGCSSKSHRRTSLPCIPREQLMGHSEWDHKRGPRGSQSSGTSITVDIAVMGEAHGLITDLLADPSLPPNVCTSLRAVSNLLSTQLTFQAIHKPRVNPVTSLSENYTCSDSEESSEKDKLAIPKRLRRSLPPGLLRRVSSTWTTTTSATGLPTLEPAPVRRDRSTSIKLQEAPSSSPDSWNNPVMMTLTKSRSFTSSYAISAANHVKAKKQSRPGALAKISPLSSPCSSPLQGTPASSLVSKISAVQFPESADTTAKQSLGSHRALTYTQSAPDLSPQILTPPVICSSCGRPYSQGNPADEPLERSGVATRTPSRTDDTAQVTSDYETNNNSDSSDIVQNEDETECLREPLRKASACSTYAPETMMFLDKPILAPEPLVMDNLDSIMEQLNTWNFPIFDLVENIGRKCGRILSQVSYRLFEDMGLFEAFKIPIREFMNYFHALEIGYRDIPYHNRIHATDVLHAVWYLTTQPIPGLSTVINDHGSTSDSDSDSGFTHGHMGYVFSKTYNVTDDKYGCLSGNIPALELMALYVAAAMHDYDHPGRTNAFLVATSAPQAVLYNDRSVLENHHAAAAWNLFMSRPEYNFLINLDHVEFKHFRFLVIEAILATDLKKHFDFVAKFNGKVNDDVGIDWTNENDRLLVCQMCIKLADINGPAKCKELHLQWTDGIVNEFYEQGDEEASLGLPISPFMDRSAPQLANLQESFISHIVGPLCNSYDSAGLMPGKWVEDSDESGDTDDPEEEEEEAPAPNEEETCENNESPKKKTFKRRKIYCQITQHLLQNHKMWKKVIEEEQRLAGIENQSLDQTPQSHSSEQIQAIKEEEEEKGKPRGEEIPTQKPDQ
Protocol: as §1, §2, §3, §4, §5, §6

[12] = target: T6, ATPase, Na+/K+, Heart, Pig (Sus scrofa, UniProt P05024); experiment: Off-target 107710; assay type: biochemical
T6 construct: purchased Eurofins Panlabs Discovery Services Taiwan, Ltd
Protocol: as §1, §2, §3, §4, §5, §6

[13] = tested on: bone; experiment: Tibial bone histomorphometry, adenine model; assay type: in vivo, male Wistar rats
Protocol: At sacrifice the left tibia of animals of the rat model with dietary adenine/high-phosphate-induced uremia and VC was collected, fixed with 70% v/v EtOH and embedded in methyl methacrylate. The trabecular bone compartment is known to be the most metabolic active i.e. actively re-structured bone compartment in CKD. Therefore, histomorphometric and micro-computed tomography (µCT) analysis of bone was performed on the trabecular compartment. Tibial sections were Goldner-stained for histomorphometric analysis of the proximal metaphysis using the AxioVision Release 4.5 software, as described previously5. The total bone area (as percentage of total tissue area), osteoid area (as percentage of total bone area), and mineralized bone area (as percentage of total tissue area) were calculated from the primary measurements. Images of osteoclast and osteoblast were taken (Leica

[14] = PK s.c. in rats with vitamin D and warfarin-induced VC; assay type: in vivo; conditions: Sprague-Dawley, rat, plasma, sc, 50 mg/kg, 50 mg/kg s.c.

T1 sequence (P32246 whole entry): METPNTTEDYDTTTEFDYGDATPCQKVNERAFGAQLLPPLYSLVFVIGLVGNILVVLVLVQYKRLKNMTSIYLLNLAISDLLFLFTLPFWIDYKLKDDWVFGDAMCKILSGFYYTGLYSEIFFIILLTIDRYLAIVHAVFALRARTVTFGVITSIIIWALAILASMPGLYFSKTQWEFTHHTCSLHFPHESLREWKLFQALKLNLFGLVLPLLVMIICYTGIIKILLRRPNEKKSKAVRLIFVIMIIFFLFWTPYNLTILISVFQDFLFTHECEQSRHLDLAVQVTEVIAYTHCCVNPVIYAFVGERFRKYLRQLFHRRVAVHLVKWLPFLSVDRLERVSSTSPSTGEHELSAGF

With `COCCOCCO[C@@H]1[C@@H](OP(=O)(O)O)[C@H](OCCOCCOC)[C@@H](OP(=O)(O)O)[C@@H](OP(=O)(O)O)[C@H]1OP(=O)(O)O` [(OEG2)2-IP4, 4,6-Di-O-(methoxy-diethyleneglycol)-myo-inositol-1,2,3,5-tetrakis(phosphate)] the inhibition at 10 µM [1] was -2%, the inhibition at 10 µM [2] was 6% and the “off-target activity in 87 biochemical assays” value [3] was “did not significantly inhibit or stimulate any”. It also gave an inhibition at 10 µM [4] of 6%, a viability at 1 µM ([5]; 1 µM) of 108% and a viability at 10 µM ([5]; 10 µM) of 106%. For the same molecule, the “serum CPP calcium content, CPP2 hydrodynamic diameter and T50 in sera at sacrifice” value [6] was “did not differ between treatment groups”, the “% Inhibition” value [7] was 12% and the inhibition at 10 µM [8] was -23%. The “% Inhibition” value [9] was -1%, the inhibition at 10 µM [10] was 5% and the inhibition at 10 µM [11] was -1%. The inhibition at 10 µM [12] was 6%, the “% bone area compared with vehicle” value ([13]; 5, 15, 50 mg/kg/day) was “significantly higher” and the “osteoblast and osteoclast morphology” value ([13]; rat, in vivo) was “not impacted”. For the same molecule, the osteoid area ([13]; treatment groups) was “distinct increase in the osteoid area”, the “mineralized trabecular bone area” value ([13]; various doses tested) was “unchanged mineralized trabecular bone area” and the AUC(0-inf) ([14]; Healthy) was 101 µM·h. The CL/F ([14]; Healthy) was 11 ± 1 mL/min/kg, the Cmax ([14]; Healthy) was 49 ± 7 µM and the half-life ([14]; Healthy (before induction of calcification)) was 3.92 ± 0.267 h. The AUC(0-t) ([14]; Healthy, read-out: AUC0-1440 (converted)) was 101 µM·h and the MRT last ([14]; Healthy, read-out: MRT0-1440 (converted)) was 2.27 h.
